In data set [1] the test system is EAE mouse model. Kind of data set: Efficacy EAE model, PLP139-151/CFA in SJL/L mice. Type of data set: in vivo. As to conditions: daily 10 mg/Kg or 50 mg/Kg, until Day 57, vs vehicle. As to the method:
(§1) N=12 for all groups except for dexamethasone which had n=5 (FIG. 1B).
Eight-weeks old female SJL/L mice were immunized on Day 1 with an emulsion of PLP139-151/CFA and injected with pertussis toxin to induce disease. At the start of clinical signs (Days 9-10), the animals were administered with compound 6 (Glx-077) at a daily dose of 10 mg/Kg or 50 mg/Kg, or with a vehicle (15% HP-β-CD in water) until completion of trial (Day 57). A graph, summarizing the results of this experiment is represented in FIG. 1A.

The test system of data set [2] is EAE mouse model. In words: Efficacy EAE model, MOG35-55/CFA in C57B16 mice. Type of data set: in vivo. To be noted: daily 10 mg/Kg, until Day 28, vs vehicle. As to the method:
as §1
Thirteen-weeks old female C57B16 mice were immunized on Day 1 with an emulsion of MOG35-55/CFA and injected with pertussis toxin to induce disease. At the start of clinical signs (Days 9-10), the animals were daily administered with Glx-077, Glx-088P3, clemastine fumarate (at 10 mg/Kg) or vehicle (15% HP-β-CD in water) until completion of experiment (Day 28). Mice administered with dexamethasone were used as a positive control group. Clinical score of the mice was measured daily. A graph, summarizing the results of this experiment is represented in FIG. 1B.

The subject of data set [3] is Gli1. In words: Gli1-Luciferase Reporter Assay (Shh Light 2 cells). Type of data set: cell-based, mouse. As to the method:
Cell line: Shh Light 2 cell line which is based on NIH3T3 mouse fibroblast cell line genetically modified to stably express the Firefly Luciferase reporter gene under the transcription control of Gli 1 binding sequence and the Renila Luciferase gene under a control pRL-SV40 promoter was licensed from Johns Hopkins University (JHU).
Cell culture: Cells are cultured in Complete Medium [formulated as DMEM, 10% FBS, 1% sodium pyruvate, 1% L-glutamine, 0.4 mg/ml G418, 0.15 mg/ml Zeocin] until 80% confluence is achieved. Once sufficient confluency is achieved, cells are detached from the 10 cm culture dish using trypsin-EDTA, washed in Growth Medium [formulated as DMEM, 10% FBS, 1% sodium pyruvate, 1% L-glutamine, 1% PenStrep] and resuspended in fresh Growth Medium at a concentration of 4.3*10^5 cells/ml. To a white 96-well plate […] of cells suspension is transferred and incubated in a humified incubator at 37° C. with 5% CO2 overnight until the cells reach confluency the following day.
On the following day, a 13 point 1:1 dilution of a stock 20 mM Gli 1 inhibitor compound in DMSO is performed and […] of each diluted Gli1 inhibitor compound is diluted in […] Assay Medium [formulated as DMEM, 2% FBS, 1% sodium pyruvate, 1% L-glutamine, 1% PenStrep]. The Growth Medium is removed from the cell-plated 96-well plate and […] of the diluted Gli1 inhibitor is transferred to each well and plates are incubated at 37° C. and 5% CO2 for 30 minutes.
Then, the plates are removed from incubator and Purmorphamine (a Smoothened agonist to induce Hedgehog signaling and Gli1 activation in cells) at a final concentration of […] is added to each well and the plates are reinserted to the incubator for 24 hours incubation. The following day, Firefly and Renila Luciferase levels are measured using the Dual-Glo Luciferase system and the ratio between the Firefly and Renila is calculated for normalization of signal. The ratio of the signal in the treated cells is plotted vs. compound concentration and the IC50 value of each compound is calculated by generating a non-linear regression curve using the 4PL function in GraphPad Prism 8 software.
The primary screening assay is based on a NIH3T3 mouse fibroblast cell line genetically modified to stably express the Firefly Luciferase reporter gene under the transcription control of Gli1 binding sequence and the Renila Luciferase gene under a control pRL-SV40 promoter. This assay allows the determination of a compound's IC50 value in inhibiting Gli1 activity.

A short description of data set [4]: Pharmacokinetic Study. Type of data set: in vivo. To be noted: for Cmax: in ng/mL (unit assumed). As to the method:
Compounds were formulated in 15% HP-b-CD in water (IV formulation was at pH=5.0 and PO was at pH=3.0). Blood was obtained from facial vein pre-dosing and at 0.083, 0.25, 0.5, 1, 2, 4, 8, 24 hours post dosing for a total of 9 time-points, semi-serial bleeding. For PO dosing, another group of animals (n=3) were terminated at 2 hours post dosing and brains were extracted to analyze brain exposure and calculate brain/plasma ratio. Lower limit of quantification (LLOQ) for brain and plasma samples was 1 ng/ml.

The mark [5] stands for this setting: Mus musculus, Shh Light2, in-vitro, read-out: concentration inhibiting 50% of Gli1 activity.
The mark [6] stands for this setting: Shh Light 2 cell line, Purmorphamine-induced, 24 hours, read-out: Luciferase cell based IC50.
Setting [7] is: Mus musculus, Shh Light2, Shh Light 2 cell line, Purmorphamine-induced, 24 hours, read-out: Luciferase cell based IC50.

Read-outs that look alike come from different tables or passages of the source. A value given as a limit tells only on which side of the number the result lay.

In the case of `Cn1c(-c2ccccc2Cl)nc2c1CN(Cc1nc3cccnc3o1)CC2` [Compound 6], in data set [1], the “clinical outcome (FIG. 1A)” value is reported as “improvements in clinical outcome”. The “clinical outcome / clinical score (FIG. 1B)” value in data set [2] is “improvements in clinical outcome”.

`Cn1c(-c2ccccc2Cl)nc2c1CN(Cc1cnc3ccccc3n1)CC2` [Compound 11]: in data set [3] (setting [5]), the IC50 is less than 17 nM.

For `Cc1nc(CN2CCc3nc(-c4ccccc4Cl)n(C)c3C2)nc2ccccc12` [Compound 12], the IC50 in data set [3] (Mus musculus, Shh Light2, benzyl series compounds, read-out: in-vitro efficacy IC50) is 5.6 nM.

On to `Cn1c(-c2ccccc2Cl)nc2c1CN(Cc1ncnc3ccccc13)CC2` [Compound 13], for which, in data set [3] (setting [5]), the IC50 was less than 17 nM.

Turning to `Cn1c(-c2ccccc2Cl)nc2c1CN(Cc1nc3ccccc3s1)CC2` [Compound 14], the IC50 in data set [3] (setting [5]) is less than 17 nM.

Consider `COc1cccc2c1CN(C1CCc3nn(-c4ccccc4Cl)c(C)c3C1)C2` (centres unmarked) [Glx-088P3], for which, in data set [4] (IV, 2 mg/Kg), the AUCINF-plasma was determined as 517 ng·h/mL and the T½ worked out at 1.53 h. In data set [4] (PO, 10 mg/Kg), the “% F” value is on record as 38%, the AUCINF-plasma came out at 517 ng·h/mL, the T½ came out at 1.5 h and the “Brain levels 2 h post PO administration” value turned out to be 123 ng/g. Moreover, in data set [4] (PO, 10 mg/Kg), the “Brain/plasma ratio (2 h)” value came to 208% and the Cmax is reported as 268. Also, in data set [4] (PO, 30 mg/Kg), the “% F” value worked out at 65.6%, the AUCINF-plasma came to 2674 ng·h/mL, the T½ worked out at 1.69 h and the “Brain levels 2 h post PO administration” value was determined as 1104 ng/g. Also, in data set [4] (PO, 30 mg/Kg), the “Brain/plasma ratio (2 h)” value was found to be 236% and the Cmax is listed as 1199. In addition, the IC50 in data set [3] (setting [6]) came to 0.18 nM. For the same compound, the “clinical outcome / clinical score (FIG. 1B)” value in data set [2] is given as “improvements in clinical outcome”.

On to `COc1cccc2c1CN(C1CCc3nn(-c4ccccc4Cl)c(C)c3C1)C2` (centres unmarked) [Glx-088RS], for which, in data set [4] (PO, 10 mg/Kg), the AUCINF-plasma was 748 ng·h/mL, the T½ was found to be 1.99 h, the “Brain levels 2 h post PO administration” value turned out to be 211 ng/g and the “Brain/plasma ratio (2 h)” value is on record as 129%. Besides, in data set [4] (PO, 10 mg/Kg), the Cmax is 698. Besides, the IC50 in data set [3] (setting [6]) is 7.1 nM.

As to `Cc1c2c(nn1-c1ccccc1Cl)CCC(N1Cc3c(F)ccc(C#N)c3C1)C2` (centres unmarked) [Glx-308], the IC50 in data set [3] (setting [7]) came out at 55 nM.

As to `Cc1c2c(nn1-c1ccccc1Cl)CCC(N1Cc3cccc(C#N)c3C1)C2` (centres unmarked) [Glx-322], the IC50 in data set [3] (setting [7]) is 12 nM.

In the case of `COc1ccc(C#N)c2c1CN(C1CCc3nn(-c4ccccc4Cl)c(C)c3C1)C2` (centres unmarked) [Glx-341], the IC50 in data set [3] (setting [7]) came out at 16.7 nM.

Turning to `COc1cccc2c1CN([C@H]1CCc3nn(-c4ccccc4Cl)c(C)c3[C@@H]1O)C2` [Glx-344A], the IC50 in data set [3] (setting [7]) turned out to be 172 nM.

On to `COc1cccc2c1CN(C1CCc3nn(-c4ccccc4Cl)c(C)c3[C@@H]1O)C2` (some centres unmarked) [Glx-344], for which the IC50 in data set [3] (setting [7]) turned out to be 385 nM.

`COc1cccc2c1CC(N1CCc3nn(-c4ccccc4Cl)c(C)c3C1)C2` (centres unmarked) [Glx-369]: the IC50 in data set [3] (setting [7]) stood at 73 nM.

Turning to `COc1cccc2c1CN(C1CCc3nn(-c4ccccc4Cl)c(C)c3C1=O)C2` (centres unmarked) [Glx-402], the IC50 in data set [3] (setting [7]) amounted to 430 nM.

These data come from patent publication US20230242511A1, “FUSED PYRAZOLE AND IMIDAZOLE BASED COMPOUNDS AND USE THEREOF AS GLI1 INHIBITORS” (GLIXOGEN THERAPEUTICS LTD., priority 2020, published 2023).
